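Grown in 96-well plates, cells were treated for 48 hours with each compound at five concentrations. Insufficient inhibition: endpoint recorded as highest concentration tested. Here, GI50 denotes the concentration required for 50% inhibition of growth.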 Calls of active or inactive are those of the source. Rule as the data show it: active = GI50 up to about 1.1 µM and inactive = higher.
How the values were obtained:
Experiment in all cases: DTP human tumour cell line panel, 48 h
[1] = system: 786-0
[2] = system: EKVX
[3] = system: HOP-62
[4] = system: OVCAR-8
[5] = system: SN12C
[6] = system: OVCAR-4
[7] = system: COLO 205
[8] = system: RPMI-8226
[9] = system: U-251
[10] = system: K562
[11] = system: SR
[12] = system: OVCAR-3
[13] = system: SW-620
[14] = system: NCI-H23
[15] = system: HCC 2998
[16] = system: UACC-62
[17] = system: Malme-3M
[18] = system: SF-539
[19] = system: SNB-75
[20] = system: LOX IMVI

Measured: GI50

COc1cc2c3cc1Oc1c(OC)c(OC)cc4c1C(Cc1ccc(O)c(c1)Oc1ccc(cc1)CC3N(C)CC2)CN(C)C4 (configuration not stated)
inactive: [1] 10.8 µM | [2] 19 µM | [3] 20 µM | [4] 15 µM | [5] 15.8 µM | [6] 17.6 µM | [7] 10 µM | [8] 13 µM | [9] 12.3 µM | [10] 5.22 µM | [11] 6.14 µM | [12] 15 µM | [13] 12.9 µM | [14] 16.9 µM | [15] 3.44 µM | [16] 18.1 µM | [17] 16.8 µM | [18] 12.9 µM | [19] 14.2 µM

N#C/C(=C/NC(=S)Nc1ccc(S(N)(=O)=O)cc1)C(N)=O
inactive: [1] > 100 µM | [2] > 100 µM | [3] > 100 µM | [4] > 100 µM | [5] > 100 µM | [6] > 100 µM | [7] > 100 µM | [8] > 100 µM | [9] > 100 µM | [11] > 100 µM | [12] > 100 µM | [13] > 100 µM | [14] > 100 µM | [15] > 100 µM | [16] > 100 µM | [17] > 100 µM | [18] > 100 µM | [19] 42.1 µM

COc1ccc(/C=C2\N=C3NC(=O)C(N4CCCCC4)=C(N)N3C2=O)cc1
inactive: [1] > 100 µM | [2] > 100 µM | [4] > 100 µM | [5] > 100 µM | [6] > 100 µM | [7] > 100 µM | [8] > 100 µM | [9] 52.8 µM | [10] 62.4 µM | [11] > 100 µM | [13] > 100 µM | [14] > 100 µM | [15] > 100 µM | [20] > 100 µM | [17] > 100 µM | [18] > 100 µM | [19] 24.8 µM

Clc1cc(Cl)cc(Nc2nc3ccccc3nc2-c2cccs2)c1
inactive: [1] 17.9 µM | [2] 41.3 µM | [3] 40.4 µM | [4] 13.3 µM | [5] 54.3 µM | [7] 7.23 µM | [8] 40 µM | [9] > 10 µM | [11] 51.2 µM | [12] 29.1 µM | [13] > 100 µM | [14] 28.8 µM | [15] 99.3 µM | [20] 94.6 µM | [16] > 10 µM | [17] 39 µM | [18] 36.1 µM | [19] 32.4 µM

Cc1nn(-c2ccccc2)c2nc3ccc(Cl)cc3c(-c3ccccc3)c12
inactive: [1] > 100 µM | [2] > 100 µM | [3] > 100 µM | [4] > 100 µM | [5] > 100 µM | [6] > 100 µM | [7] > 100 µM | [8] > 100 µM | [9] > 100 µM | [11] > 100 µM | [12] > 100 µM | [13] > 100 µM | [14] > 100 µM | [15] > 100 µM | [20] > 100 µM | [16] > 100 µM | [17] > 100 µM | [19] > 100 µM

CN1N=C2c3ccccc3OC(c3ccccc3)[C@H]2C1c1ccccc1 (some centres not stated)
inactive: [1] > 100 µM | [2] > 100 µM | [3] 95.5 µM | [4] > 100 µM | [5] > 100 µM | [6] 85.1 µM | [7] > 100 µM | [8] 89.7 µM | [9] > 100 µM | [10] 88.1 µM | [11] > 100 µM | [12] > 100 µM | [13] > 100 µM | [14] 79.4 µM | [15] 56.1 µM | [20] > 100 µM | [16] > 100 µM | [17] 22.2 µM | [18] > 100 µM

C=C(C)C1C/C=C(/C)CCCC2(CCC3=C(CC(C(=C)C)C/C=C(/C)CCC3)O2)C(=O)C1 (configuration not stated)
inactive: [1] > 100 µM | [2] > 100 µM | [3] > 100 µM | [4] > 100 µM | [5] > 100 µM | [6] > 100 µM | [7] > 100 µM | [8] > 100 µM | [9] > 100 µM | [10] > 100 µM | [11] > 100 µM | [13] > 100 µM | [14] > 100 µM | [15] > 100 µM | [20] > 100 µM | [16] > 100 µM | [17] > 100 µM | [18] > 100 µM | [19] > 100 µM

CC(CC(C)[C@H]1CCC2[C@H]3C(CC(=O)[C@@]21C)[C@@]1(C)CCC(O)C[C@H]1C[C@@H]3O)C(=O)O (some centres not stated)
inactive: [1] > 100 µM | [2] > 100 µM | [3] > 100 µM | [4] > 100 µM | [5] > 100 µM | [6] > 100 µM | [7] > 100 µM | [8] 41.3 µM | [9] > 100 µM | [10] 34.7 µM | [11] 18.3 µM | [13] 87.1 µM | [14] > 100 µM | [15] > 100 µM | [20] > 100 µM | [16] > 100 µM | [17] > 100 µM | [18] > 100 µM | [19] > 100 µM

Source: ChEMBL document CHEMBL1201862, “PubChem BioAssay data set” (2004)
